Laboratory results reported in patent publication US9802976B2, “Method for preparing substituted 3,7-dihydroxy steroids” (NeurMedix, Inc., priority 2008, dated 2017).
Marks after values point to notes of the source that are not given here.

Assays:
ERα = target: T1, ERα (Homo sapiens, UniProt P03372); assay: Estrogen receptor binding assay (fluorescence polarization competition), ERα
T1 construct: bacculovirus expressed, full length human 2.8 pmol/μL ERα was used as reagent; purchased PanVera; host or cells: baculovirus expression system
T1 sequence (P03372 whole entry): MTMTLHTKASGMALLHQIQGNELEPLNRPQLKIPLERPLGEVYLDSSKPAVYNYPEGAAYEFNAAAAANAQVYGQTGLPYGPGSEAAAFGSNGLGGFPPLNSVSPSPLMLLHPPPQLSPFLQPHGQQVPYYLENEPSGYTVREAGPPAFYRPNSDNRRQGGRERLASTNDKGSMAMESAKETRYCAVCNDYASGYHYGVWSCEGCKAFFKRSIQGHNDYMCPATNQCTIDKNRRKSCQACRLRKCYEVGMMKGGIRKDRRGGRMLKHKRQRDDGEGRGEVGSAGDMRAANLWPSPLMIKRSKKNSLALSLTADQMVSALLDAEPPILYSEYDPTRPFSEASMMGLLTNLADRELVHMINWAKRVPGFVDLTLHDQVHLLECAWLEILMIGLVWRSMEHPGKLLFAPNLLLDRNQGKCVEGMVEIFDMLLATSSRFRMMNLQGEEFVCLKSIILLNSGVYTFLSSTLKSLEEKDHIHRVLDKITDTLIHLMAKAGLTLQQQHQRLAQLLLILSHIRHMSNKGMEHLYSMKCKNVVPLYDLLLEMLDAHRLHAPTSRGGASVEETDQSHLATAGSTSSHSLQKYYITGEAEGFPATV

[1] = test system: nuclear sex steroid receptors; assay: Binding activity at nuclear sex steroid receptors; details: essentially free defined in b31 as Ki>10 μM
Source text: The term “binding activity” refers to the ability of a specified compound, a preparation comprising Compound 1 or impurity (or impurities) in a preparation of Compound 1 to bind to or associate with a receptor, typically a sex steroid receptor such as an androgen receptor or an estrogen receptor to effect or modulate the receptor's biological activity. Binding is usually measured in assays as the capacity of a compound, usually an impurity in a preparation comprising Compound 1, to displace a physiologically relevant ligand of a receptor (i.e., reference ligand) that is bound to that receptor in a competition assay. The reference ligand is typically a natural ligand of the receptor or an agonist of the receptor that has been labeled with a radioactive or spectroscopic probe whose presence may be queried by scintillation counting or by a spectroscopic method such as fluorescence emission or fluorescence polarization.
The radioactive probe is typically ^3H and/or ^14C, where radioactive atom(s) have replaced one or more of atoms of the ligand at positions where loss of the radiolabel would not occur to an extent under conditions of the assay that would complicate or confound interpretation of the assay results. […]

ERβ = target: T2, ERβ (Homo sapiens, UniProt Q92731); assay: Estrogen receptor binding assay (fluorescence polarization competition), ERβ
T2 construct: Assay reagents used were bacculovirus expressed, full length human ERβ; purchased PanVera; host or cells: baculovirus expression system
T2 sequence (Q92731 whole entry): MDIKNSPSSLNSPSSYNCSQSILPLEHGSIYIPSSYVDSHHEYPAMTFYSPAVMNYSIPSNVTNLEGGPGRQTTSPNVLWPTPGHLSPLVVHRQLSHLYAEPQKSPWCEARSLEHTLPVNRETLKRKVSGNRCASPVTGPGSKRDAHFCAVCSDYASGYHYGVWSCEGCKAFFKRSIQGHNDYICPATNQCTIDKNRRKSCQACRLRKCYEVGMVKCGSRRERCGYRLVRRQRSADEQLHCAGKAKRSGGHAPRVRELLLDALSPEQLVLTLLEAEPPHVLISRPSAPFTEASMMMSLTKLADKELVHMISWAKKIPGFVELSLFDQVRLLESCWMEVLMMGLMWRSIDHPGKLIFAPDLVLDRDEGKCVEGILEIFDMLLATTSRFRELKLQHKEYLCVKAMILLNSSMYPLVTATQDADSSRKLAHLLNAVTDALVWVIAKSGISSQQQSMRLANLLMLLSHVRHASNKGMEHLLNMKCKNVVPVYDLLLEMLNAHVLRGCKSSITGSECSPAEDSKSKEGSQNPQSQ
Method: (§1) Estrogen receptor binding assay: A suitable example system is an estrogen receptor-kit manufactured by PanVera for ERIβ, which contains recombinant estrogen receptor β ligand, FLUORMONE™ ES2 (ES2), a fluorescently labeled estrogen ligand, and appropriate buffer. […] When bound to ERβ, ES2 tumbles slowly and has a high fluorescence polarization value.
(§2) The competition assay was conducted according to the manufacturer's protocol (Lit. No. L0712, Rev. 10/03). Assay reagents used were bacculovirus expressed, full length human ERβ […] in 50 mM Bis-Tris Propane (pH=9), 400 mM KCl, 2 mM DTT, 1 mM EDTA, 10% glycerol, ES2 400 nM in methanol and E2 screening buffer consisting of 100 mM potassium phosphate (pH=7.4), 100 μg/mL BGG, 0.02% NaN3. The ES2-ERβ complex was formed with 20 μL 20 nM ERβ (0.020 pmol/μL) and 20 μL 2 nM ES2 (0.002 pmol/μL). Positive control (estrogen) solution was prepared using 20 μL of a 1.0 mM stock solution in DMSO and 80 μL DMSO. In a first dilution, 50 μL of this solution is added to 50 μL of DMSO, which is followed by dilutions in 2-fold increments, to provide for a 14 point dilution curve. In a second dilution, to 4 μL of each DMSO solution from the first dilution is added 400 μL of ES2 screening buffer. […] Fluorescence polarization values are obtained using 485 nm excitation and 530 nm emission interference filters. […]

[2] = Estrogenic effects seen with Compound 1 prepared by Process A; details: Compound 1 preparation made by Process A, Route 1 (contains 17α-ethynyl-androst-5-ene-3β,17β-diol impurity)
estrogen receptors = assay: Binding capacity of impurities to estrogen receptors; design: species or system human; details: impurities in Compound 1 from Process A, Route 1 after recrystallization; directly or from the product after ester hydrolysis
Method: as §1, §2

[3] = Compound 1 essentially free of the 3β,17β-diol impurity, tested to 10 μM

Row | SMILES | activity at the estrogen receptor ERα (ERα; [3]) | binding activity at nuclear sex steroid receptors [1] | activity at the estrogen receptor ERβ (ERβ; [3]) | estrogenic effects [2] | binding capacity to estrogen receptors (estrogen receptors) | binding activity at the estrogen receptor ERα (ERα; receptor binding studies) | binding activity at the estrogen receptor ERβ (ERβ; receptor binding studies)
1 | C#C[C@@]1(O)CC[C@H]2[C@@H]3[C@@H](O)C=C4C[C@H](O)CC[C@]4(C)[C@H]3CC[C@@]21C [Compound 1, 17-Ethynyl-10R,13S-dimethyl 2,3,4,7,8R,9S,10,11,12,13,14S,15,16,17-hexadecahydro-1H-cyclopenta[a]phenanthrene-3R,7R,17S-triol] | no activity | essentially free of binding activity | no activity | estrogenic effects | – | – | –
2 | C#CC1(O)CCC2C3CC=C4CC(OC(C)=O)CCC4(C)C3CCC21C (stereo not drawn) [17α-ethynyl-3β-acetoxy-androst-5-ene-17β-diol] | – | – | – | – | 0.05** | – | –
3 | C#CC1(O)CCC2C3CC=C4CC(O)CCC4(C)C3CCC21C (stereo not drawn) [17α-ethynyl-androst-5-ene-3β,17β-diol] | – | – | – | – | 0.61** | significant binding activity | significant binding activity
